Experimental data taken from the NIST ThermoML archive (doi:10.1016/j.jct.2019.03.023).
Several values for one entry are separate records, joined by “and”; a condition that tells them apart may be missing. Equal entries are not always repeated.

Assay: molar heat capacity at constant volume
Conditions: Fluid (supercritical or subcritical phases), Vacuum adiabatic calorimetry

CC(C)O [propan-2-ol]
Conditions	molar heat capacity at constant volume
452.05 K, Mass density=581.06 kg/m3	180.71 J/K/mol
452.1 K, Mass density=581.06 kg/m3	178.12 J/K/mol
452.15 K, Mass density=581.06 kg/m3	174.34 J/K/mol
452.2 K, Mass density=581.06 kg/m3	178.36 J/K/mol
452.25 K, Mass density=581.06 kg/m3	175.9 J/K/mol
463.48 K, Mass density=329.2 kg/m3	270.31 J/K/mol
463.58 K, Mass density=329.2 kg/m3	271.63 J/K/mol
463.68 K, Mass density=329.2 kg/m3	275.36 J/K/mol
463.78 K, Mass density=329.2 kg/m3	270.31 J/K/mol
463.83 K, Mass density=329.2 kg/m3	274.63 J/K/mol
463.97 K, Mass density=329.2 kg/m3	279.44 J/K/mol
464.18 K, Mass density=329.2 kg/m3	278.72 J/K/mol and 277.04 J/K/mol
464.27 K, Mass density=329.2 kg/m3	280.16 J/K/mol
464.42 K, Mass density=329.2 kg/m3	278.24 J/K/mol
464.47 K, Mass density=329.2 kg/m3	275.54 J/K/mol
464.97 K, Mass density=329.2 kg/m3	277.34 J/K/mol
465.27 K, Mass density=329.2 kg/m3	272.77 J/K/mol
465.34 K, Mass density=329.2 kg/m3	278.54 J/K/mol
482.51 K, Mass density=329.2 kg/m3	288.1 J/K/mol
482.6 K, Mass density=329.2 kg/m3	289.9 J/K/mol
482.7 K, Mass density=329.2 kg/m3	288.46 J/K/mol
482.8 K, Mass density=329.2 kg/m3	287.73 J/K/mol
482.89 K, Mass density=329.2 kg/m3	288.34 J/K/mol
482.99 K, Mass density=329.2 kg/m3	292 J/K/mol
483.09 K, Mass density=329.2 kg/m3	287.19 J/K/mol
483.18 K, Mass density=329.2 kg/m3	291.64 J/K/mol
491.97 K, Mass density=274 kg/m3	317.84 J/K/mol
492.07 K, Mass density=274 kg/m3	313.28 J/K/mol
492.16 K, Mass density=274 kg/m3	317.9 J/K/mol
492.25 K, Mass density=274 kg/m3	317.9 J/K/mol
492.35 K, Mass density=274 kg/m3	322.53 J/K/mol
492.44 K, Mass density=274 kg/m3	322.53 J/K/mol
492.54 K, Mass density=274 kg/m3	322.59 J/K/mol
492.63 K, Mass density=274 kg/m3	322.59 J/K/mol
492.73 K, Mass density=274 kg/m3	318.08 J/K/mol
493.86 K, Mass density=255.8 kg/m3	333.29 J/K/mol
493.95 K, Mass density=255.8 kg/m3	333.29 J/K/mol
494.05 K, Mass density=255.8 kg/m3	323.49 J/K/mol
494.14 K, Mass density=255.8 kg/m3	338.27 J/K/mol
494.24 K, Mass density=255.8 kg/m3	333.41 J/K/mol
494.33 K, Mass density=255.8 kg/m3	323.61 J/K/mol
494.43 K, Mass density=255.8 kg/m3	333.47 J/K/mol
494.52 K, Mass density=255.8 kg/m3	328.54 J/K/mol
494.52 K, Mass density=324.5 kg/m3	307.87 J/K/mol
494.62 K, Mass density=324.5 kg/m3	303.36 J/K/mol
494.71 K, Mass density=324.5 kg/m3	303.18 J/K/mol
494.8 K, Mass density=324.5 kg/m3	309.79 J/K/mol
494.99 K, Mass density=324.5 kg/m3	306.6 J/K/mol
495.09 K, Mass density=324.5 kg/m3	314.12 J/K/mol
495.27 K, Mass density=324.5 kg/m3	308.05 J/K/mol
495.37 K, Mass density=324.5 kg/m3	311.05 J/K/mol
495.46 K, Mass density=324.5 kg/m3	303.36 J/K/mol
495.56 K, Mass density=324.5 kg/m3	314.96 J/K/mol
499.41 K, Mass density=274 kg/m3	329.44 J/K/mol
499.5 K, Mass density=274 kg/m3	338.64 J/K/mol
499.6 K, Mass density=274 kg/m3	334.07 J/K/mol
499.69 K, Mass density=274 kg/m3	338.7 J/K/mol
499.79 K, Mass density=274 kg/m3	334.13 J/K/mol
499.88 K, Mass density=274 kg/m3	338.76 J/K/mol
499.97 K, Mass density=274 kg/m3	338.82 J/K/mol
500.07 K, Mass density=274 kg/m3	338.82 J/K/mol
500.16 K, Mass density=274 kg/m3	334.25 J/K/mol
500.25 K, Mass density=255.8 kg/m3	348.07 J/K/mol
500.35 K, Mass density=255.8 kg/m3	343.74 J/K/mol
500.44 K, Mass density=255.8 kg/m3	348.67 J/K/mol
500.54 K, Mass density=255.8 kg/m3	348.73 J/K/mol
500.63 K, Mass density=255.8 kg/m3	345.79 J/K/mol
500.72 K, Mass density=255.8 kg/m3	348.79 J/K/mol
500.82 K, Mass density=255.8 kg/m3	338.94 J/K/mol
500.85 K, Mass density=329.2 kg/m3	318.14 J/K/mol
500.91 K, Mass density=255.8 kg/m3	346.15 J/K/mol
500.95 K, Mass density=329.2 kg/m3	311.35 J/K/mol
501 K, Mass density=281.9 kg/m3	333.77 J/K/mol
501.04 K, Mass density=329.2 kg/m3	310.87 J/K/mol
501.09 K, Mass density=281.9 kg/m3	334.85 J/K/mol
501.1 K, Mass density=281.9 kg/m3	338.09 J/K/mol
501.14 K, Mass density=329.2 kg/m3	313.94 J/K/mol
501.23 K, Mass density=329.2 kg/m3	314.06 J/K/mol
501.29 K, Mass density=281.9 kg/m3	337.01 J/K/mol
501.33 K, Mass density=329.2 kg/m3	310.75 J/K/mol
501.38 K, Mass density=281.9 kg/m3	335.39 J/K/mol
501.42 K, Mass density=329.2 kg/m3	316.76 J/K/mol
501.47 K, Mass density=281.9 kg/m3	337.49 J/K/mol
501.53 K, Mass density=329.2 kg/m3	318.08 J/K/mol
501.57 K, Mass density=281.9 kg/m3	336.95 J/K/mol
501.62 K, Mass density=329.2 kg/m3	320.49 J/K/mol
501.66 K, Mass density=281.9 kg/m3	338.58 J/K/mol
501.75 K, Mass density=281.9 kg/m3	331 J/K/mol
501.81 K, Mass density=329.2 kg/m3	316.64 J/K/mol
501.85 K, Mass density=343.1 kg/m3	312.61 J/K/mol
501.9 K, Mass density=329.2 kg/m3	317.06 J/K/mol
501.94 K, Mass density=266.3 kg/m3	345.85 J/K/mol
